Blank lines part the entries; values can stand above or below the compound they belong to.
Columns and labels:
[1] = tested on: SKBR3 (PI3Kα-Wild Type) cell line; assay: HTRF phospho-AKT(S473) cell assay in SKBR3 cells; assay type: cell-based, human
Procedure, shortened: (§1)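 Cells plated overnight (T47D in RPMI/10% FBS/0.2 units/mL insulin; SKBR3 in McCoy's 5A/10% FBS), then given 12-point 1:3 compound series (top 5 μM T47D, 10 μM SKBR3; ≤0.5% DMSO) for 2 h at 37° C. SKBR3 stimulated with 70 ng/ml PDGF-BB for final 15 min. Lysate pAKT(S473) by HTRF; IC50 calculated.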

[2] = tested on: T47D (PI3Kα-H1047R) cell line; assay: HTRF phospho-AKT(S473) cell assay in T47D cells; assay type: cell-based, human
Procedure, shortened: as §1

[3] = Homo sapiens, SK-BR-3; SKBR3 (PI3Kα-Wild Type) cells, HTRF phospho-AKT(S473), 2 hours compound incubation, PDGF-BB stimulated
[4] = Homo sapiens; T47D (PI3Kα-H1047R) cells, HTRF phospho-AKT(S473), 2 hours compound incubation
[5] = Homo sapiens, SK-BR-3; HTRF phospho-AKT(S473), SKBR3 (PI3Kα-Wild Type) cells, 2 hours compound incubation, PDGF-BB stimulated
[6] = Homo sapiens; HTRF phospho-AKT(S473), T47D (PI3Kα-H1047R) cells, 2 hours compound incubation

SMILES: Cc1cc([C@@H](C)Nc2ccc(Cl)nc2C(=O)NS(C)(=O)=O)c2nc(N3CCC(n4cccn4)CC3)n(C)c(=O)c2c1 [Compound 199, (R)-3-((1-(2-(4-(1H-pyrazol-1-yl)piperidin-1-yl)-3,6-dimethyl-4-oxo-3,4-dihydroquinazolin-8-yl)ethyl)amino)-6-chloro-N-(methylsulfonyl) picolinamide]
- IC50 [1, 3]: 1000 to 5000 nM
- IC50 [2, 4]: < 250 nM

SMILES: Cc1cc([C@@H](C)Nc2ccc(Cl)nc2C(=O)NS(C)(=O)=O)c2nc(N3CCC(c4cnc(C)c(F)c4)CC3)n(C)c(=O)c2c1 [Compound 422, (R)-6-chloro-3-((1-(2-(4-(5-fluoro-6-methylpyridin-3-yl)piperidin-1-yl)-3,6-dimethyl-4-oxo-3,4-dihydroquinazolin-8-yl)ethyl)amino)-N-(methylsulfonyl) picolinamide]
- IC50 [1, 3]: 1000 to 5000 nM
- IC50 [2, 4]: < 250 nM

SMILES: Cc1cc([C@@H](C)Nc2ccc(Cl)nc2C(=O)NS(C)(=O)=O)c2nc(N3C[C@@H]4[C@H](C3)[C@H]4c3ccc(C#N)nc3)n(C)c(=O)c2c1 [Compound 402, 6-chloro-3-(((R)-1-(2-((1R,5S,6S)-6-(6-cyanopyridin-3-yl)-3-azabicyclo[3.1.0]hexan-3-yl)-3,6-dimethyl-4-oxo-3,4-dihydroquinazolin-8-yl)ethyl)amino)-N-(methylsulfonyl) picolinamide]
- IC50 [1, 3]: 1000 to 5000 nM
- IC50 [2, 4]: < 250 nM

SMILES: Cc1cc([C@@H](C)Nc2ccc(Cl)nc2C(=O)NS(C)(=O)=O)c2nc(N3CCC(c4ccnn4C)CC3)n(C)c(=O)c2c1 [Compound 389, (R)-6-chloro-3-((1-(3,6-dimethyl-2-(4-(1-methyl-1H-pyrazol-5-yl)piperidin-1-yl)-4-oxo-3,4-dihydroquinazolin-8-yl)ethyl)amino)-N-(methylsulfonyl) picolinamide]
- IC50 [1, 3]: 1000 to 5000 nM
- IC50 [2, 4]: < 250 nM

SMILES: Cc1cc([C@@H](C)Nc2ccc(Cl)nc2C(=O)NS(C)(=O)=O)c2nc(N3CCC(c4ncc(C(F)F)cn4)CC3)n(C)c(=O)c2c1 [Compound 504, (R)-6-chloro-3-((1-(2-(4-(5-(difluoromethyl)pyrimidin-2-yl)piperidin-1-yl)-3,6-dimethyl-4-oxo-3,4-dihydroquinazolin-8-yl)ethyl)amino)-N-(methylsulfonyl) picolinamide]
- IC50 [1, 5]: 1000 to 5000 nM
- IC50 [2, 6]: < 250 nM

SMILES: Cc1cc([C@@H](C)Nc2ccc(Cl)nc2C(=O)NS(C)(=O)=O)c2nc(N3Cc4cnn([C@@H](C)C(F)(F)F)c4C3)n(C)c(=O)c2c1 (relative stereo) [Compound 284, 6-chloro-3-(((R)-1-(3,6-dimethyl-4-oxo-2-(1-((R*)-1,1,1-trifluoropropan-2-yl)-4,6-dihydropyrrolo[3,4-c]pyrazol-5(1H)-yl)-3,4-dihydroquinazolin-8-yl)ethyl)amino)-N-(methylsulfonyl) picolinamide]
- IC50 [1, 3]: 1000 to 5000 nM
- IC50 [2, 4]: < 250 nM

SMILES: Cc1cc([C@@H](C)Nc2ccc(Cl)nc2C(=O)NS(C)(=O)=O)c2nc(N3CC[C@@H](Oc4cnn(CC(F)(F)F)c4)C3)n(C)c(=O)c2c1 [Compound 329, 6-chloro-3-(((R)-1-(3,6-dimethyl-4-oxo-2-((R)-3-((1-(2,2,2-trifluoroethyl)-1H-pyrazol-4-yl)oxy)pyrrolidin-1-yl)-3,4-dihydroquinazolin-8-yl)ethyl)amino)-N-(methylsulfonyl) picolinamide]
- IC50 [1, 3]: 1000 to 5000 nM
- IC50 [2, 4]: < 250 nM

SMILES: COc1c([C@H]2[C@@H]3CN(c4nc5c([C@@H](C)Nc6ccc(Cl)nc6C(=O)NS(C)(=O)=O)cc(C)cc5c(=O)n4C)C[C@@H]32)cnn1C [Compound 461, 6-chloro-3-(((R)-1-(2-((1R,5S,6S)-6-(5-methoxy-1-methyl-1H-pyrazol-4-yl)-3-azabicyclo[3.1.0]hexan-3-yl)-3,6-dimethyl-4-oxo-3,4-dihydroquinazolin-8-yl)ethyl)amino)-N-(methylsulfonyl) picolinamide]
- IC50 [1, 5]: 1000 to 5000 nM
- IC50 [2, 6]: < 250 nM

SMILES: Cc1cc([C@@H](C)Nc2ccc(Cl)nc2C(=O)NS(C)(=O)=O)c2nc(N3C[C@@H]4[C@H](C3)[C@H]4c3csc(C)n3)n(C)c(=O)c2c1 [Compound 476, 6-chloro-3-(((R)-1-(3,6-dimethyl-2-((1R,5S,6R)-6-(2-methylthiazol-4-yl)-3-azabicyclo[3.1.0]hexan-3-yl)-4-oxo-3,4-dihydroquinazolin-8-yl)ethyl)amino)-N-(methylsulfonyl) picolinamide]
- IC50 [1, 5]: 1000 to 5000 nM
- IC50 [2, 6]: 250 to 500 nM

SMILES: Cc1cc([C@@H](C)Nc2ccc(Cl)nc2C(=O)NS(C)(=O)=O)c2nc(N3C[C@@H]4[C@H](C3)[C@H]4c3ccn(C4CC4)n3)n(C)c(=O)c2c1 [Compound 475, 6-chloro-3-(((R)-1-(2-((1R,5S,6R)-6-(1-cyclopropyl-1H-pyrazol-3-yl)-3-azabicyclo[3.1.0]hexan-3-yl)-3,6-dimethyl-4-oxo-3,4-dihydroquinazolin-8-yl)ethyl)amino)-N-(methylsulfonyl) picolinamide]
- IC50 [1, 5]: 1000 to 5000 nM
- IC50 [2, 6]: 250 to 500 nM

SMILES: Cc1cc([C@@H](C)Nc2ccc(Cl)nc2C(=O)NS(C)(=O)=O)c2nc(N3CCC(c4cc(C5CC5)[nH]n4)CC3)n(C)c(=O)c2c1 [Compound 511, (R)-6-chloro-3-((1-(2-(4-(5-cyclopropyl-1H-pyrazol-3-yl)piperidin-1-yl)-3,6-dimethyl-4-oxo-3,4-dihydroquinazolin-8-yl)ethyl)amino)-N-(methylsulfonyl) picolinamide]
- IC50 [1, 5]: ≥ 5000 nM
- IC50 [2, 6]: 500 to 1000 nM

SMILES: Cc1cc([C@@H](C)Nc2ccc(Cl)nc2C(=O)NS(C)(=O)=O)c2nc(N3CC[C@@H](Oc4ccc(F)cc4)C3)n(C)c(=O)c2c1 (relative stereo) [Compound 236, 6-chloro-3-(((R)-1-(2-((R*)-3-(4-fluorophenoxy)pyrrolidin-1-yl)-3,6-dimethyl-4-oxo-3,4-dihydroquinazolin-8-yl)ethyl)amino)-N-(methylsulfonyl) picolinamide]
- IC50 [1, 3]: 1000 to 5000 nM
- IC50 [2, 4]: 250 to 500 nM

Other lines, results leading:

- IC50 [1, 5]: ≥ 5000 nM
- IC50 [2, 6]: 250 to 500 nM
SMILES: Cc1cc([C@@H](C)Nc2ccc(Cl)nc2C(=O)NS(C)(=O)=O)c2nc(N3C[C@@H]4[C@H](C3)[C@H]4c3nc(C)n(C(F)F)n3)n(C)c(=O)c2c1 [Compound 642, 6-chloro-3-(((R)-1-(2-((1R,5S,6R)-6-(1-(difluoromethyl)-5-methyl-1H-1,2,4-triazol-3-yl)-3-azabicyclo[3.1.0]hexan-3-yl)-3,6-dimethyl-4-oxo-3,4-dihydroquinazolin-8-yl)ethyl)amino)-N-(methylsulfonyl) picolinamide]

- IC50 [1, 5]: 1000 to 5000 nM
- IC50 [2, 6]: < 250 nM
SMILES: Cc1cc([C@@H](C)Nc2ccc(Cl)nc2C(=O)NS(C)(=O)=O)c2nc(N3CCc4nn(C(F)F)cc4C3)n(C)c(=O)c2c1 [Compound 627, (R)-6-chloro-3-((1-(2-(2-(difluoromethyl)-2,4,6,7-tetrahydro-5H-pyrazolo[4,3-c]pyridin-5-yl)-3,6-dimethyl-4-oxo-3,4-dihydroquinazolin-8-yl)ethyl)amino)-N-(methylsulfonyl) picolinamide]

- IC50 [1, 5]: ≥ 5000 nM
- IC50 [2, 6]: 250 to 500 nM
SMILES: Cc1cc([C@@H](C)Nc2ccc(Cl)nc2C(=O)NS(C)(=O)=O)c2nc(N3CCC(c4n[nH]cc4Cl)CC3)n(C)c(=O)c2c1 [Compound 717, (R)-6-chloro-3-((1-(2-(4-(4-chloro-1H-pyrazol-3-yl)piperidin-1-yl)-3,6-dimethyl-4-oxo-3,4-dihydroquinazolin-8-yl)ethyl)amino)-N-(methylsulfonyl) picolinamide]

- IC50 [1, 5]: ≥ 5000 nM
- IC50 [2, 6]: 500 to 1000 nM
SMILES: Cc1cc([C@@H](C)Nc2ccc(Cl)nc2C(=O)NS(C)(=O)=O)c2nc(-c3ccc4nc(C)nn4c3)n(C)c(=O)c2c1 [Compound 823, (R)-6-chloro-3-((1-(3,6-dimethyl-2-(2-methyl-[1,2,4]triazolo [1,5-a]pyridin-6-yl)-4-oxo-3,4-dihydroquinazolin-8-yl)ethyl)amino)-N-(methylsulfonyl) picolinamide]

- IC50 [1, 5]: 1000 to 5000 nM
- IC50 [2, 6]: 250 to 500 nM
SMILES: Cc1cc([C@@H](C)Nc2ccc(Cl)nc2C(=O)NS(C)(=O)=O)c2nc(N3C[C@@H]4[C@H](C3)[C@H]4n3cnc(C)n3)n(C)c(=O)c2c1 [Compound 566, 6-chloro-3-(((R)-1-(3,6-dimethyl-2-((1R,5S,6S)-6-(3-methyl-1H-1,2,4-triazol-1-yl)-3-azabicyclo[3.1.0]hexan-3-yl)-4-oxo-3,4-dihydroquinazolin-8-yl)ethyl)amino)-N-(methylsulfonyl) picolinamide]

- IC50 [1, 5]: ≥ 5000 nM
- IC50 [2, 6]: 250 to 500 nM
SMILES: COc1cc([C@H]2[C@@H]3CN(c4nc5c([C@@H](C)Nc6ccc(Cl)nc6C(=O)NS(C)(=O)=O)cc(C)cc5c(=O)n4C)C[C@@H]32)nn1C [Compound 542, 6-chloro-3-(((R)-1-(2-((1R,5S,6R)-6-(5-methoxy-1-methyl-1H-pyrazol-3-yl)-3-azabicyclo[3.1.0]hexan-3-yl)-3,6-dimethyl-4-oxo-3,4-dihydroquinazolin-8-yl)ethyl)amino)-N-(methylsulfonyl) picolinamide]

- IC50 [1, 5]: 1000 to 5000 nM
- IC50 [2, 6]: 250 to 500 nM
SMILES: Cc1cc([C@@H](C)Nc2ccc(Cl)nc2C(=O)NS(C)(=O)=O)c2nc(N3CCn4nccc4C3)n(C)c(=O)c2c1 [Compound 765, (R)-6-chloro-3-((1-(2-(6,7-dihydropyrazolo[1,5-a]pyrazin-5(4H)-yl)-3,6-dimethyl-4-oxo-3,4-dihydroquinazolin-8-yl)ethyl)amino)-N-(methylsulfonyl) picolinamide]
